Holding throughout (experiment): growth of human tumour cells (NCI), 48 h
Assay [1] has as its system KM12 colon.
Assay [2] concerns CAKI-1 renal.
The test system of assay [3] is NCI-H226 lung.
Assay [4] concerns M14 melanoma.
Assay [5] deals with SK-MEL-5 melanoma.
Assay [6] has as its system HT29 colon.
For assay [7], the system named is K-562 leukemia.
The subject of assay [8] is SF-295 CNS.
Assay [9] deals with IGROV1 ovarian.
The test system of assay [10] is NCI-H23 lung.
Assay [11] relates to MALME-3M melanoma.
In assay [12] the test system is OVCAR-3 ovarian.
The subject of assay [13] is SN12C renal.
For assay [14], the system named is NCI/ADR-RES ovarian.
The subject of assay [15] is PC-3 prostate.
The test system of assay [16] is T-47D breast.
In assay [17] the test system is MDA-MB-435.

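Following 48 hours of exposure in 96-well plates, responses at five concentrations were used to interpolate endpoints linearly. TGI marks complete inhibition of growth.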

Here are results for 10 molecules from PubChem BioAssay (NCI).

With `CO[C@H](C(=O)O[C@H]1C(=O)N2CC[C@@H]3CCC[C@H]1C32C)c1ccccc1` (some centres not stated), the TGI in [1], in [2], in [3], in [4], in assay [5] and in assay [6] was over 100 µM each time. The TGI in [7], in assay [8], in [9], in assay [10], in [11] and in assay [12] was over 100 µM throughout. Also, the TGI in assay [13] was over 100 µM.
`O=C(CSc1nnc(Cc2ccccc2)o1)Nc1ccc(Cl)cc1[N+](=O)[O-]`: the TGI in [3] came out at 47.6 µM; in [4], 32.9 µM; in assay [5] it was 30.9 µM; in [6], 49.2 µM; in assay [7], 98.7 µM; in assay [8], 34.2 µM. Besides, the TGI was 36 µM in [10], 30.2 µM in assay [11] and 31.4 µM in assay [13].
As to `CCOC(=O)NC(Nc1ccc(S(=O)(=O)Nc2ccc(OC)nn2)cc1)(C(F)(F)F)C(F)(F)F`, the TGI in assay [1] is over 100 µM; in assay [14] it was 59.9 µM; in assay [2] it was over 100 µM; in assay [3], 75.9 µM; in assay [15] it was over 100 µM; in assay [4], 50.4 µM. The TGI in [5] was 32 µM; in assay [16], over 100 µM; in [6], over 100 µM; in assay [7], over 100 µM; in assay [8], over 100 µM; in [9], 54 µM. In addition, the TGI stood at 35.8 µM in assay [17]; 96.4 µM in [10]; 40.2 µM in [11]; 55.7 µM in assay [12]; 83.9 µM in [13].
For the molecule `Cc1ccc(NC(=O)CCc2nnc3s/c(=C\c4cccc([N+](=O)[O-])c4)c(=O)n23)cc1`, the TGI in assay [1], in assay [2], in assay [3], in assay [4], in assay [5] and in [6] was over 100 µM each time. In addition, the TGI in assay [7], in [8], in assay [9], in assay [10], in assay [11] and in assay [12] was over 100 µM in each case. This molecule showed a TGI in assay [13] of over 100 µM.
In the case of `O=C1C[C@@H]2[C@@H](CCC23CCCC3)N1`, the TGI in assay [1], in assay [2], in assay [3], in assay [4], in assay [5] and in assay [6] was over 100 µM in each case. Also, the TGI in assay [7], in assay [8], in [9], in assay [10], in assay [11] and in assay [12] was over 100 µM throughout. In addition, the TGI in assay [13] was over 100 µM.
On to `CC(=O)NNc1nc(C)c(C(/C=C/c2ccc(Cl)cc2)=N\N=C(N)N)s1`, for which the TGI in assay [1], in assay [2], in assay [3], in assay [4], in assay [5] and in assay [6] was over 100 µM in each case. For the same molecule, the TGI in assay [7], in [8], in assay [9], in [10], in assay [11] and in assay [12] was over 100 µM throughout. Besides, in [13], the TGI is over 100 µM.
For `Cc1cc(N(CCC#N)CCC#N)ccc1/C=C1N=C(/C=C/c2ccccc2)N(c2ccc(S(N)(=O)=O)cc2)C\1=O`, the TGI in assay [1], in assay [2], in [3], in assay [4], in assay [5] and in assay [6] was over 100 µM throughout. The TGI in assay [7], in assay [8], in assay [9], in [10], in assay [11] and in assay [12] was over 100 µM throughout. In assay [13], this molecule displayed a TGI of over 100 µM.
In the case of `CN1C(=S)CSc2ccccc21`, the TGI in assay [1], in [2], in [3], in [4], in [5] and in assay [6] was over 100 µM in each case. For the same molecule, the TGI in assay [7], in assay [9], in [10], in assay [11], in [12] and in assay [13] was over 100 µM in each case.
For `O=C1N=CN=C2C=CC(Cl)=C(I)C12` (configuration not stated), the TGI in assay [1], in assay [2], in [4], in assay [5], in assay [6] and in assay [7] was over 100 µM each time. Further, the TGI in assay [8], in [9], in [10], in assay [11], in assay [12] and in assay [13] was over 100 µM throughout.
For the molecule `N#CC(C(=O)/C(=N/NC(=O)c1ccccc1O)C(C#N)c1ccc(Br)cc1)c1ccc(Br)cc1` (configuration not stated), the TGI in [1] was 25.5 µM; in assay [3], 19.1 µM; in assay [4] it was 29 µM; in assay [5] it was 21.5 µM; in [6] it was 33.9 µM; in assay [7], over 100 µM. Besides, the TGI in [8] was determined as 28.6 µM; in assay [9], 33.3 µM; in assay [10] it was 16.4 µM; in assay [11], 24.6 µM; in assay [12], 26.4 µM; in assay [13] it was 21.9 µM.
